The results in this text go back to BindingDB's records for doi:10.7270/Q2KD1WBN (Burnham Center For Chemical Genomics, 2010).

pIC50: −log10 of the molar value.

This assay deals with Envelope glycoprotein gp160 (Human immunodeficiency virus 1, UniProt Q6QLK5). The assay is described as follows: HIV fusion inhibitor analogs, peptide binding, SAR follow-up, biochemical, fluorescence quenching (AID 434967).
Envelope glycoprotein gp160, sequence (Q6QLK5 whole entry, the tested form may be a part): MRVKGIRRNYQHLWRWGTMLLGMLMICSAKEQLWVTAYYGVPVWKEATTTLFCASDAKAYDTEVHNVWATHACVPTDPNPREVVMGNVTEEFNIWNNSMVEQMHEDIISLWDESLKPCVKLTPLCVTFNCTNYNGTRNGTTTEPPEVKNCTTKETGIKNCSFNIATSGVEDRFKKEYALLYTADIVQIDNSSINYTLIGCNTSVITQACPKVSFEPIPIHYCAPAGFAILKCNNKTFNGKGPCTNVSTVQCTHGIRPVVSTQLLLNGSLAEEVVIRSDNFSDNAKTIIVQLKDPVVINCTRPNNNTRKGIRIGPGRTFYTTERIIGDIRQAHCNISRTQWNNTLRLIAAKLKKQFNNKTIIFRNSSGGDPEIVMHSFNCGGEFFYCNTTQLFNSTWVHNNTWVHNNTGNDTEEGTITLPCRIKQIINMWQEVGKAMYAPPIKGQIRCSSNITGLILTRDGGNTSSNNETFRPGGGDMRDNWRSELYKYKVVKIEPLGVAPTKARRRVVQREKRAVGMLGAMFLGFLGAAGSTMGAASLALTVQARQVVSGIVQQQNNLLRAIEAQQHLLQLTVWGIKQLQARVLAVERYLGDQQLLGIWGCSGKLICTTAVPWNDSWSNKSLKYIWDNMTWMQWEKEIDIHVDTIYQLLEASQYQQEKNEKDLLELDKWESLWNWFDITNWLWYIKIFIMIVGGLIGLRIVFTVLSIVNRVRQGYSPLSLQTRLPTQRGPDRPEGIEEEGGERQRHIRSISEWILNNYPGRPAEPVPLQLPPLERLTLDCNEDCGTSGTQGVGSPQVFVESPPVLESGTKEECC
The term pIC50 denotes −log10 of the IC50, conventionally taken in molar units. The molecule `Cc1c(Cl)cccc1NS(=O)(=O)c1ccc2c(c1)C1C=CCC1C(c1ccc(C(=O)O)cc1)N2` (stereo not drawn) had a pIC50 of 5.50.

`CS(=O)(=O)C1=NSC2=NC(=O)/C(=C\c3cccn3-c3ccc(Cl)cc3)C(=N)N21` gave a pIC50 of 5.24.

The molecule `COc1cc(/C=C2\SC(=O)N(c3ccccc3Cl)C2=O)cc([N+](=O)[O-])c1O` had a pIC50 of 5.04.

`N#C/C(=C\C1C=CC(=O)C([N+](=O)[O-])=C1)c1nc2ccccc2s1` (stereo not drawn) had a pIC50 of 5.20.

In the case of `CCC(Sc1nc2ccsc2c(=O)n1Cc1ccc(C(=O)O)cc1)C(=O)Nc1ccc(C)c(Cl)c1` (stereo not drawn), the pIC50 is 5.10.

Take `CS(=O)(=O)C1=NSC2=NC(=O)/C(=C\c3ccc(OS(=O)(=O)c4ccccc4)cc3)C(=N)N21`: the pIC50 is 5.11.

Molecule `CCOc1cc(/C=C2\SC(=O)N(CC(=O)Nc3ccccc3F)C2=O)cc([N+](=O)[O-])c1O` gave a pIC50 of 5.36.

`O=C1Nc2ccc([N+](=O)[O-])cc2C1=NNc1ccccc1C(=O)O` [2-[2-(5-nitro-2-oxidanylidene-indol-3-yl)hydrazinyl]benzoic acid] gave a pIC50 of 4.88.

`CCOC(=O)C1=C(C)N=c2sc(=Cc3ccc(OCC(=O)O)cc3)c(=O)n2C1c1ccc(OC(C)C)cc1` (stereo not drawn) [2-[4-[[6-ethoxycarbonyl-7-methyl-3-oxo-5-(4-propan-2-yloxyphenyl)-5H-[1,3]thiazolo[3,2-a]pyrimidin-2-ylidene]methyl]phenoxy]acetic acid] gave a pIC50 of 5.18.

`O=c1/c(=C/c2cc([N+](=O)[O-])cc([N+](=O)[O-])c2O)sc2nc3ccccc3n12` [2-[(2-hydroxy-3,5-dinitrophenyl)methylidene]-1-thiazolo[3,2-a]benzimidazolone]: the pIC50 is 5.58.

`CCC(C)(C)C1CCc2c(sc(NC(=O)c3ccccc3C(=O)O)c2C#N)C1` (stereo not drawn) [2-[[3-cyano-6-(2-methylbutan-2-yl)-4,5,6,7-tetrahydro-1-benzothiophen-2-yl]carbamoyl]benzoic acid] showed a pIC50 of 5.21.

Take `O=C(O)c1ccccc1C(=O)N(Cc1cccc(Oc2ccc(Cl)cc2)c1)[C@H]1CCCc2ccccc21` [2-[[[3-(4-chlorophenoxy)phenyl]methyl-[(1S)-1,2,3,4-tetrahydronaphthalen-1-yl]amino]-oxomethyl]benzoic acid]: the pIC50 was 5.59.

In turn, `COc1cc(CN=Nc2ccc(Cl)c(C(=O)O)c2)ccc1OC(=O)c1ccc(F)cc1` [2-chloro-5-[2-[[4-[(4-fluorophenyl)-oxomethoxy]-3-methoxyphenyl]methylidene]hydrazinyl]benzoic acid] gave a pIC50 of 5.10.

`CC(C)S(=O)(=O)C1=NSC2=NC(=O)/C(=C\c3ccc(-c4cccc(C(=O)O)c4)o3)C(=N)N21` [3-[5-[(Z)-(5-imino-7-oxo-3-propan-2-ylsulfonyl-[1,2,4]thiadiazolo[4,5-a]pyrimidin-6-ylidene)methyl]furan-2-yl]benzoic acid] gave a pIC50 of 5.35.

`O=[N+]([O-])c1cc([N+](=O)[O-])c2oc(-c3ccccc3)c(Br)c2c1O` [3-bromanyl-5,7-dinitro-2-phenyl-1-benzofuran-4-ol] showed a pIC50 of 4.84.

Regarding `O=C(O)CCCN1C(=O)/C(=C/c2ccc(-c3nc4ccccc4s3)o2)SC1=S` [4-[(5Z)-5-[[5-(1,3-benzothiazol-2-yl)furan-2-yl]methylidene]-4-oxo-2-sulfanylidene-1,3-thiazolidin-3-yl]butanoic acid], the pIC50 is 5.75.

For the molecule `CC(C)(C)c1cc(-c2cs/c(=N\c3ccccc3)n2Cc2ccc(C(=O)O)cc2)cc(C(C)(C)C)c1O` [4-[[4-(3,5-ditert-butyl-4-oxidanyl-phenyl)-2-phenylazanyl-1,3-thiazol-3-ium-3-yl]methyl]benzoic acid;bromide], the pIC50 is 4.56.

Take `Cc1ccc(S(=O)(=O)Oc2ccc(/C=C3/C(=N)N4C(=NC3=O)SN=C4S(C)(=O)=O)cc2)cc1` [4-methylbenzenesulfonic acid [4-[(Z)-(5-imino-3-methylsulfonyl-7-oxo-[1,2,4]thiadiazolo[4,5-a]pyrimidin-6-ylidene)methyl]phenyl] ester]: the pIC50 is 5.19.

`O=C1NC(=S)N(c2ccc(F)cc2)C(=O)C1=Cc1ccco1` [(5E)-1-(4-fluorophenyl)-5-(2-furanylmethylidene)-2-sulfanylidene-1,3-diazinane-4,6-dione] had a pIC50 of 5.00.

On to `Cc1cc(C)cc(-n2cccc2/C=C2/C(=N)N3C(=NC2=O)SN=C3S(C)(=O)=O)c1` [(6Z)-5-azanylidene-6-[[1-(3,5-dimethylphenyl)pyrrol-2-yl]methylidene]-3-methylsulfonyl-[1,2,4]thiadiazolo[4,5-a]pyrimidin-7-one], for which the pIC50 was 5.11.

In turn, `CC(C)S(=O)(=O)C1=NSC2=NC(=O)/C(=C\c3ccc(-c4ccccc4)o3)C(=N)N21` [(6Z)-5-imino-6-[(5-phenyl-2-furanyl)methylidene]-3-propan-2-ylsulfonyl-[1,2,4]thiadiazolo[4,5-a]pyrimidin-7-one] gave a pIC50 of 5.02.

The molecule `CSc1nnc(-c2ccccc2N=Cc2c(C)[nH]n(-c3ccc4ccccc4c3)c2=O)c(=O)[nH]1` [MLS000540062] had a pIC50 of 5.01.

As to `Cc1ccc(-n2cccc2/C=C2/C(=N)N3C(=NC2=O)SN=C3S(C)(=O)=O)cc1Cl` [MLS000583163], the negative-log IC50 (pIC50) was 5.24.

Turning to `CC1(C)CC(=O)C2=C(C1)c1c(ccc3ccccc13)NC2c1cc([N+](=O)[O-])cc([N+](=O)[O-])c1O` (stereo not drawn) [MLS000716265], the pIC50 was 4.87.

`Cc1c2c(=O)n(-c3nc4ccccc4s3)[nH]c2cc(=O)n1Cc1ccccc1` [MLS000762993]: the pIC50 was 5.00.

For `COc1ccccc1NS(=O)(=O)c1cccc(-n2c(O)c(C=Nc3ccccc3C(=O)O)c3ccccc3c2=O)c1` [MLS000776209], the pIC50 is 5.02.

With `COc1ccc(OC)c(N2C(=O)C(=Cc3ccco3)C(=O)NC2=S)c1` [MLS001197216], the negative logarithm of the IC50 (pIC50) was 5.22.

Molecule `COc1cc(/C=N/NS(=O)(=O)c2ccc3ccccc3c2)ccc1OCc1ccc(C(=O)O)cc1` [MLS-0298745.0001] showed a pIC50 of 5.11.

`O=C(O)c1cc(N=NCc2ccc(-c3ccccc3)cc2)ccc1Cl` [MLS-0319671.0001] showed a pIC50 of 4.83.

For `CCS(=O)(=O)C1=NSC2=NC(=O)/C(=C\c3ccc(OS(=O)(=O)c4ccccc4)cc3)C(=N)N21` [MLS-0362442.0001], the pIC50 was 4.94.

`CC(C)NC(=O)c1sc(=S)n2c1[nH]c(=O)c1ccc(C(=O)NCCc3ccc(Cl)cc3)cc12` [N8-[2-(4-chlorophenyl)ethyl]-5-oxidanylidene-N3-propan-2-yl-1-sulfanylidene-4H-[1,3]thiazolo[3,4-a]quinazoline-3,8-dicarboxamide] showed a pIC50 of 5.02.

With `O=C1NC(=S)N(C2CCCCC2)C(=O)C1=CNNC(=O)c1ccccc1O` [N'-[(E)-(1-cyclohexyl-4,6-dioxo-2-sulfanylidene-1,3-diazinan-5-ylidene)methyl]-2-hydroxybenzohydrazide], the pIC50 is 5.05.

As to `O=C1NC(=S)N(c2ccc(F)cc2)C(=O)C1=Cc1ccoc1` [SMR000270574], the pIC50 is 5.07.

`Cc1ccc(-n2c(O)c(C=Nc3ccccc3-c3n[nH]c(=S)[nH]c3=O)c3ccccc3c2=O)c(C)c1` [SMR000370443] gave a negative logarithm of the IC50 (pIC50) of 5.24.

The molecule `COC(=O)c1sc(-c2ccc(C(C)(C)C)cc2)cc1NC(=O)c1ccccc1C(=O)O` [SMR000456098] gave a pIC50 of 5.23.

Take `COc1cc(CN=Nc2ccc(Cl)c(C(=O)O)c2)ccc1OC(=O)c1ccccc1F` [SMR000589905]: the pIC50 was 4.59.

Consider `COc1ccc(C(=O)Oc2ccc(CN=Nc3ccc(Cl)c(C(=O)O)c3)cc2OC)cc1` [SMR000589907], for which the pIC50 is 5.29.

The molecule `CCOC(=O)c1sc(N2C(=O)C(=O)C(C(=O)c3ccc(C)o3)C2c2cccc([N+](=O)[O-])c2)nc1C` (stereo not drawn) [ethyl 4-methyl-2-[3-(5-methylfuran-2-yl)carbonyl-2-(3-nitrophenyl)-4-oxidanyl-5-oxidanylidene-2H-pyrrol-1-yl]-1,3-thiazole-5-carboxylate] showed a pIC50 of 4.98.
